Experimental data from publication PMC8457749, “Design, Synthesis, and Anticancer Activity Evaluation of Hybrids of Azoles and Barbituric Acids” (Iranian Journal of Pharmaceutical Research : IJPR, 2021).

What was measured:
MCF-7 cells = assay: MTT antiproliferative assay, MCF-7; assay type: cell-based, human; conditions: for inhibition at 100 µM / IC50: Homo sapiens, MCF7, 48 h; for inhibition at 100 µM: read-out: Growth Inhibition at 100 μM (%) MCF-7; for IC50: read-out: IC50 MCF-7; for Selectivity index MCF-7: IC50 on normal cells (L02)/IC50 on tumor cells (MCF-7)
Method: (§1) The antiproliferative activity of the target compounds against the panel of three different human cancer cell lines, liver (BEL-7402), colorectal (HCT-116), and breast (MCF-7) cell lines was evaluated using a standard MTT-based colorimetric assay. All cell lines were obtained from the Key Laboratory of Natural Resources and Functional Molecules of the Changbai Mountain (Yanbian University) and maintained in Dulbecco’s modified Eagle’s medium (DMEM) and RPMI Media 1640 (RPMI1640), supplemented with 10% foetal bovine serum (FBS) at 37 °C in a humidified atmosphere containing 5% CO2.
(§2) The cells were plated in 96-well plates at appropriate densities to ensure exponential growth throughout the experimental period (9 × 10^3 cells per well) and then allowed to adhere for 24 h. the cells were then treated for 48 h with each compound. After 48 h of incubation, 10 μL of MTT solution was added to each well to a final concentration of 2 mg/mL. the plates were then incubated for a further 4 h. After incubation, the MTT solution was removed and 150 μL of DMSO was added to each well for coloration. The plates were shaken vigorously for 10 min at room temperature to ensure complete solubilisation. The optometric density (OD) was read on a microplate reader (EL × 800, BioTek, Highland Park, Winooski, VT, USA) at 492 nm, and the data were subsequently analysed. The percentage of cell growth inhibition was calculated from the following Equation:
(§3) Inhibitory rate (%) = [1 − (ODtreated − ODblank)/(ODcontrol − ODblank)] × 100%
(§4) To obtain the antiproliferative activity of compounds 3a-3s and 4a-4d, the compounds were selected in the same way with four serial concentrations (1, 10, 50 and 100 μM) of those compounds. The optometric density (OD) reading was then used to calculate the IC50.

L02 cells = assay: Antiproliferative activity against normal cell line L02; assay type: cell-based; conditions: Homo sapiens, L02, read-out: L02 IC50
Method: The lack of selective cytotoxicity is the main factor that restricts the dose of most conventional chemotherapeutic agents ([21]). […] Selectivity indexes between cancer cells and L02 cells were calculated.

HCT-116 cells = assay: MTT antiproliferative assay, HCT-116; assay type: cell-based, human; conditions: for inhibition at 100 µM / IC50: Homo sapiens, HCT-116, 48 h; for inhibition at 100 µM: read-out: Growth Inhibition at 100 μM (%) HCT-116; for IC50: read-out: IC50 HCT-116; for Selectivity index HCT-116: IC50 on normal cells (L02)/IC50 on tumor cells (HCT-116)
Method: as §1, §2, §3, §4

BEL-7402 cells [1] = assay: MTT antiproliferative assay, BEL-7402; assay type: cell-based, human; conditions: for inhibition at 100 µM / IC50: Homo sapiens, Bel-7402, 48 h; for inhibition at 100 µM: read-out: Growth Inhibition at 100 μM (%) BEL-7402; for IC50: read-out: IC50 BEL-7402; for Selectivity index BEL-7402: IC50 on normal cells (L02)/IC50 on tumor cells (BEL-7402)
Method: as §1, §2, §3, §4

BEL-7402 cells [2] = assay: Apoptosis by flow cytometry (annexin V-FITC/PI); assay type: cell-based, human; conditions: 24 h
Method: Apoptosis was detected using an Apoptosis Detection Kit (Invitrogen, Eugene, OR, USA). Briefly, BEL-7402 cells were cultured in 6-well plates (1.0 × 10^6 cells per well) and incubated at 37 °C for 12 h. Cells with exponential growth were then incubated with compound 3s at different concentrations (5 μM and 20 μM). Following 24 h of incubation, the cells were collected, washed twice with PBS and once with 1 × binding buffer, and then stained with 5 […] and […] (5 mg/mL) in 1 × binding buffer for 30 min at 20 °C in the dark. Apoptotic cells were enumerated using a FACSCalibur flow cytometer with Cell Quest software (Becton–Dickinso, Franklin Lakes, NJ, USA).

HCT116 cancer cells = tested on: HCT116 cancer cells; parameters: method as in PMID 30981113; conditions: HCT116 cancer cells ref 11; read-out: IC50 anti-proliferative activity HCT116; cited from earlier work
HCT116 cell line = tested on: HCT116 cell line; parameters: method as in earlier work; conditions: cited from earlier work
MCF-7 cell line = tested on: MCF-7 cell line; parameters: method as in earlier work; conditions: cited from earlier work

Row | SMILES | inhibition at 100 µM (MCF-7 cells) | IC50 (MCF-7 cells) | IC50 (L02 cells) | melting point | inhibition at 100 µM (HCT-116 cells) | IC50 (HCT-116 cells) | Selectivity index HCT-116 (HCT-116 cells) | inhibition at 100 µM (BEL-7402 cells [1]) | IC50 (BEL-7402 cells [1]) | Selectivity index MCF-7 (MCF-7 cells) | Selectivity index BEL-7402 (BEL-7402 cells [1]) | early-stage apoptosis rate (LR) (BEL-7402 cells [2]; 5 μM) | late-stage apoptosis rate (UR) (BEL-7402 cells [2]; 5 μM) | dead cells (UL) (BEL-7402 cells [2]; 20 μM) | early-stage apoptosis rate (LR) (BEL-7402 cells [2]; 20 μM) | late-stage apoptosis rate (UR) (BEL-7402 cells [2]; 20 μM) | IC50 (HCT116 cancer cells) | IC50 (HCT116 cell line) | IC50 (MCF-7 cell line)
1 | O=C1NC(=O)C(=Cc2cn(-c3ccc(Cl)cc3)nn2)C(=O)N1 [Compound 3g, 5-((1-(4-chlorophenyl)-1H-1,2,3-triazol-4-yl)methylene)pyrimidine-2,4,6(1H,3H,5H)-trione] | 23.9 ± 2.9% | > 100 µM | 80.2 ± 6 µM | 250 °C | 68.5 ± 4.6% | 9.59 ± 1.01 µM | 8.36 | 46.6 ± 4.6% | > 100 µM | – | – | – | – | – | – | – | – | – | –
2 | O=C1NC(=O)C(=Cc2cn(-c3cc(Cl)ccc3Cl)nn2)C(=O)N1 [Compound 3h, 5-((1-(2,5-dichlorophenyl)-1H-1,2,3-triazol-4-yl)methylene)pyrimidine-2,4,6(1H,3H,5H)-trione] | 92.2 ± 8.5% | 75.9 ± 1.98 µM | 78.8 ± 3.9 µM | 250 °C | 81.2 ± 4.2% | 18.9 ± 1.97 µM | 4.17 | 82.1 ± 3.2% | 9.49 ± 1.78 µM | 1.04 | 8.30 | – | – | – | – | – | – | – | –
3 | O=C1NC(=O)C(=Cc2cn(-c3cccc(Br)c3)nn2)C(=O)N1 [Compound 3k, 5-((1-(3-bromophenyl)-1H-1,2,3-triazol-4-yl)methylene)pyrimidine-2,4,6(1H,3H,5H)-trione] | 31.7 ± 2.8% | > 100 µM | 66.4 ± 5.1 µM | 250 °C | 88.9 ± 3.1% | 19.4 ± 1.67 µM | 3.42 | 81.6 ± 3.6% | 19.2 ± 1.8 µM | – | 3.46 | – | – | – | – | – | – | – | –
4 | O=C1NC(=O)C(=Cc2cn(-c3ccc(C(F)(F)F)cc3)nn2)C(=O)N1 [Compound 3s, 5-((1-(4-(trifluoromethyl)phenyl)-1H-1,2,3-triazol-4-yl)methylene)pyrimidine-2,4,6(1H,3H,5H)-trione] | 90.4 ± 5.3% | 8.98 ± 0.99 µM | 82.2 ± 4.8 µM | – | 62.9 ± 1.9% | 21.5 ± 1.19 µM | 3.82 | 95.3 ± 4.9% | 4.02 ± 0.5 µM | 9.15 | 20.45 | 1.33% | 4.94% | 27.40% | 3.37% | 35.78% | – | – | –
5 | C=C1C(=O)[C@]23[C@H](OC(=O)c4cn(-c5ccc(OC)cc5)nn4)[C@H]1CC[C@H]2[C@@]12CO[C@]3(O)[C@@H](O)[C@@H]1C(C)(C)CC[C@@H]2O [Compound C] | – | – | – | – | – | – | – | – | – | – | – | – | – | – | – | – | 1.94 µM | – | –
6 | CC1=NN=C(C)C1=NNc1sc2c(c1C(N)=O)CCCCC2 [D] | – | – | – | – | – | – | – | – | – | – | – | – | – | – | – | – | – | 31.1 µM | 22.7 µM
7 | C=C1C(=O)[C@]23[C@H](O)[C@H]1CC[C@H]2[C@@]12CO[C@]3(O)[C@@H](O)[C@@H]1C(C)(C)CC[C@@H]2O [oridonin] | – | – | – | – | – | – | – | – | – | – | – | – | – | – | – | – | 6.84 µM | – | –
